Source: US20230295131A1, “INHIBITORS OF RHO-ASSOCIATED COILED-COIL KINASE” (Angion Biomedica Corp., priority 2020, published 2023)
Like-named read-outs stand apart in the source and are kept apart here.

Experiments:
ROCK1 = target: T1, ROCK1 (Homo sapiens, UniProt Q13464); experiment: ROCK1 kinase binding affinity, DiscoverX KINOMEscan KdELECT; conditions: 11-point 3-fold dilution
T1 construct: T7 phage fusion (kinase-tagged phage) or DNA tag for qPCR detection
Experimental: (§1) 1. ROCK1 and ROCK2 kinase assays: The ROCK1 and ROCK2 kinase binding affinities of compounds in this disclosure were determined by DiscoverX's KINOMEscan™ KdELECT technology (https://www.discoverx.com/kinomescan-elect-kinase-screening-and-profiling-services): Kinase-tagged T7 phage strains were prepared in an E. coli host derived from the BL21 strain. E. coli were grown to log-phase and infected with T7 phage and incubated with shaking at 32° C. until lysis. The lysates were centrifuged and filtered to remove cell debris. The remaining kinases were produced in HEK-293 cells and subsequently tagged with DNA for qPCR detection. […] The liganded beads were blocked with excess biotin and washed with blocking buffer (SeaBlock (Pierce), 1% BSA, 0.05% Tween 20, 1 mM DTT) to remove unbound ligand and to reduce nonspecific binding. […] Kds were determined using an 11-point 3-fold compound dilution series with three DMSO control points. […] The compounds were then diluted directly into the assays such that the final concentration of DMSO was 0.9%. All reactions performed in polypropylene 384-well plate. Each was a final volume of 0.02 ml. […] The kinase concentration in the eluates was measured by qPCR.

ROCK2 = target: T2, ROCK2 (Homo sapiens, UniProt O75116); experiment: ROCK2 kinase binding affinity, DiscoverX KINOMEscan KdELECT; conditions: for ROCK2 Selectivity: selectivity for ROCK2 over ROCK1 from Kd
T2 construct: T7 phage fusion (kinase-tagged phage) or DNA tag for qPCR detection
T2 sequence (O75116 whole entry, the tested form may be a part): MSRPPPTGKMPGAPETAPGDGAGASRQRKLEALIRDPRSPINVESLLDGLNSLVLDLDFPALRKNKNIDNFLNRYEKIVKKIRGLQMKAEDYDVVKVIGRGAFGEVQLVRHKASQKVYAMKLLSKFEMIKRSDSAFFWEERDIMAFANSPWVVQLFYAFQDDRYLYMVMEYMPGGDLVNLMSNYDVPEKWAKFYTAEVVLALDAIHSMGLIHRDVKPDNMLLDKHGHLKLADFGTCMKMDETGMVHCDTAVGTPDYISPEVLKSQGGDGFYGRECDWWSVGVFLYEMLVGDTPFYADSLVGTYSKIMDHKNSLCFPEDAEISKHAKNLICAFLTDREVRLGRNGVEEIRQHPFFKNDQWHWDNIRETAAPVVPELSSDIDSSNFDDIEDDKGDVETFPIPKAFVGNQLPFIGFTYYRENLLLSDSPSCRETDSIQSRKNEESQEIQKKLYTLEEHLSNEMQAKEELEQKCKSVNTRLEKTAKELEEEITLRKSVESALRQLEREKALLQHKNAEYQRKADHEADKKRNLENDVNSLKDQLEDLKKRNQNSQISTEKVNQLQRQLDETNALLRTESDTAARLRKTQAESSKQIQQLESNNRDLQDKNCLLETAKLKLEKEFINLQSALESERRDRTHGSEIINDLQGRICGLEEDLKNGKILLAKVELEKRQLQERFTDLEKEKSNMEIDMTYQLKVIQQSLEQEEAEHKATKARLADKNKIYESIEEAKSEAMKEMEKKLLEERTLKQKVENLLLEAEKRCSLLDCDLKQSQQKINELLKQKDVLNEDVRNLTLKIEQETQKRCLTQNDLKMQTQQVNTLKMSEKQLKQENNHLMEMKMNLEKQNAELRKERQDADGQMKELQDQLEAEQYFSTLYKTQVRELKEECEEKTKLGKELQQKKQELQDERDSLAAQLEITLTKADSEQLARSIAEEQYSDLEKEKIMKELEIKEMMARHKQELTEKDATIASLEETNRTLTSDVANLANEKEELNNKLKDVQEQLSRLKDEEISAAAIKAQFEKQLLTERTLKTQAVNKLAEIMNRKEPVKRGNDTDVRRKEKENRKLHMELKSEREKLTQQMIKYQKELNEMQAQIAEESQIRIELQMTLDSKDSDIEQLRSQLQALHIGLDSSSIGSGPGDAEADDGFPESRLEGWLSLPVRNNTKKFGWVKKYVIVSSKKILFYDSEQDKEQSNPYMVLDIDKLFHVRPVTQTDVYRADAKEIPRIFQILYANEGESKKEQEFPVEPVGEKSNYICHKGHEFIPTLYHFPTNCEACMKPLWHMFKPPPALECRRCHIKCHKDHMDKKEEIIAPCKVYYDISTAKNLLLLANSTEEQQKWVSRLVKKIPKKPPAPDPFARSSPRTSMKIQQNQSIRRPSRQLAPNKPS
Experimental: as §1

[1] = KINOMEscan KdELECT, 11-point 3-fold dilution, read-out: Kd (μM) ROCK2

T1 sequence (Q13464 whole entry, the tested form may be a part): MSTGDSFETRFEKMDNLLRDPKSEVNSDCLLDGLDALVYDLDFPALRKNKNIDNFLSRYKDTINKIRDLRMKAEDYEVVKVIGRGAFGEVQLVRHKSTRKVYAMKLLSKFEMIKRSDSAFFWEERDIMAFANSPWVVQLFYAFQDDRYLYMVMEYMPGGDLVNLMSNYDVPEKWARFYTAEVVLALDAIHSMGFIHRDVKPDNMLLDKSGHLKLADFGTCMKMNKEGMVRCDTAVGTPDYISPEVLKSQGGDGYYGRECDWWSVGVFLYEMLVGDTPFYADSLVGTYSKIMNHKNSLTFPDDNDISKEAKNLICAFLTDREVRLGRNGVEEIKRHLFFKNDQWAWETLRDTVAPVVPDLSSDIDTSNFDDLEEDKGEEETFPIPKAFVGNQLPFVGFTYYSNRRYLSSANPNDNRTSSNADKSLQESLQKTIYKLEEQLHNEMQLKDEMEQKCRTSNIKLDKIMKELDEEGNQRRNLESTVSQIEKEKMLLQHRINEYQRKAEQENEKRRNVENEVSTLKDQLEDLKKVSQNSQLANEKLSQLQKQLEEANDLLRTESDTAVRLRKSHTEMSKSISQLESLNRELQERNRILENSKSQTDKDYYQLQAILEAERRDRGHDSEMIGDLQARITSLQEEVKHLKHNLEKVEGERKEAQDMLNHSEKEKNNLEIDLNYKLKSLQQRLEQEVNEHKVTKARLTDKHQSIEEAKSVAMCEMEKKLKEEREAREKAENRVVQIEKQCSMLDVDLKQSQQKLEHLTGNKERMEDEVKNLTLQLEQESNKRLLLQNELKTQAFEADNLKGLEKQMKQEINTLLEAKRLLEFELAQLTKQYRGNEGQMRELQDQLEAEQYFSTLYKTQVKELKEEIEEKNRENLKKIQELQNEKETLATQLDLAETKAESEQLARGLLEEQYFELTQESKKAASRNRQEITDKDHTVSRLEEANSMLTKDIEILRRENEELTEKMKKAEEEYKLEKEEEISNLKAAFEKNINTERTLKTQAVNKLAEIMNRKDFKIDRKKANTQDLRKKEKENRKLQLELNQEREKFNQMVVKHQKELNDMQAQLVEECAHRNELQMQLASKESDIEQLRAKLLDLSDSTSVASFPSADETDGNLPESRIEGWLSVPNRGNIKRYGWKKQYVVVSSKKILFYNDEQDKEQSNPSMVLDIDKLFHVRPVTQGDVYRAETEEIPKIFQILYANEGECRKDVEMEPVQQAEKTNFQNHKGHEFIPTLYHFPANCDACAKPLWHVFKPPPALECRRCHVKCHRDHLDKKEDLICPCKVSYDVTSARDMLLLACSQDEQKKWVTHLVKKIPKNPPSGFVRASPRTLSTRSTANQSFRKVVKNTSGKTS

SMILES | Kd (ROCK1) [µM] | Kd (ROCK2; [1]) [µM] | ROCK2 Selectivity (ROCK2) | Kd (ROCK2) [µM]
CN(C)CCNc1nccc(-c2nccc(C#Cc3ccc4[nH]ncc4c3)n2)n1 [Ex. 54, N1-(4-((1H-Indazol-5-yl)ethynyl)-[2,4′-bipyrimidin]-2′-yl)-N2,N2-dimethylethane-1,2-diamine] | 1 to 9.9 | 0.1 to 0.99 | * (<50-fold selectivity for ROCK2) | 
O[C@H]1CC[C@@H](Nc2nccc(-c3nccc(C#Cc4ccn5cnnc5c4)n3)n2)CC1 [Ex. 97, (1s,4s)-4-((4-([1,2,4]Triazolo[4,3-a]pyridin-7-ylethynyl)-[2,4′-bipyrimidin]-2′-yl)amino)cyclohexanol] | 10 to 100 | 10 to 100 | * (<50-fold selectivity for ROCK2) | 
CC(C)(N)CNc1nccc(-c2nccc(C#Cc3ccc4[nH]ncc4c3)n2)n1 [Ex. 89, N1-(4-((1H-Indazol-5-yl)ethynyl)-[2,4′-bipyrimidin]-2′-yl)-2-methylpropane-1,2-diamine] | 1 to 9.9 | 0.1 to 0.99 | * (<50-fold selectivity for ROCK2) | 
CN1CCN(C(=O)CNc2nccc(-c3nccc(C#Cc4ccc5[nH]ncc5c4)n3)n2)CC1 [Ex. 73, 2-((4-((1H-Indazol-5-yl)ethynyl)-[2,4′-bipyrimidin]-2′-yl)amino)-1-(4-methylpiperazin-1-yl)ethanone] | 0.1 to 0.99 | 0.01 to 0.099 | * (<50-fold selectivity for ROCK2) | 
O[C@H]1CC[C@@H](Nc2nccc(-c3nccc(C#Cc4ccc5[nH]nc(F)c5c4)n3)n2)C1 [Ex. 94, (1S,3R)-3-((4-((3-Fluoro-1H-Indazol-5-yl)ethynyl)-[2,4′-bipyrimidin]-2′-yl)amino)cyclopentanol] | 1 to 9.9 | < 0.01 | **** (>500-fold selectivity for ROCK2) | 
O=C(CNc1nccc(-c2nccc(C#Cc3ccc4[nH]ncc4c3)n2)n1)N1CC[C@H](O)C1 [Ex. 1, (S)-2-((4-((1H-Indazol-5-yl)ethynyl)-[2,4′-bipyrimidin]-2′-yl)amino)-1-(3-hydroxypyrrolidin-1-yl)ethanone] | 0.1 to 0.99 | < 0.01 | ** (50 to 150-fold selectivity for ROCK2) | 
O=C(CNc1nccc(-c2nccc(C#Cc3ccc4[nH]ncc4c3)n2)n1)NC12CCC(CC1)C2 [Ex. 2, 2-((4-((1H-Indazol-5-yl)ethynyl)-[2,4′-bipyrimidin]-2′-yl)amino)-N-(bicyclo[2.2.1]heptan-1-yl)acetamide] | 0.1 to 0.99 | < 0.01 | *** (151 to 500-fold selectivity for ROCK2) | 
Cc1cnc(CNc2nccc(-c3nccc(C#Cc4ccc5[nH]ncc5c4)n3)n2)nc1 [Ex. 4, 4-((1H-Indazol-5-yl)ethynyl)-N-((5-methylpyrimidin-2-yl)methyl)-[2,4′-bipyrimidin]-2′-amine] | 1 to 9.9 | 0.1 to 0.99 | * (<50-fold selectivity for ROCK2) | 
Fc1cccc(CNc2nccc(-c3nccc(C#Cc4ccc5[nH]ncc5c4)n3)n2)c1F [Ex. 26, 4-((1H-Indazol-5-yl)ethynyl)-N-(2,3-difluorobenzyl)-[2,4′-bipyrimidin]-2′-amine] | 1 to 9.9 | 0.01 to 0.099 | ** (50 to 150-fold selectivity for ROCK2) | 
Fc1cnccc1CNc1nccc(-c2nccc(C#Cc3ccc4[nH]ncc4c3)n2)n1 [Ex. 31, 4-((1H-Indazol-5-yl)ethynyl)-N-((3-fluoropyridin-4-yl)methyl)-[2,4′-bipyrimidin]-2′-amine] | 1 to 9.9 | 0.01 to 0.099 | ** (50 to 150-fold selectivity for ROCK2) | 
Fc1ncccc1CNc1nccc(-c2nccc(C#Cc3ccc4[nH]nc(F)c4c3)n2)n1 [Ex. 43, 4-((3-Fluoro-1H-indazol-5-yl)ethynyl)-N-((2-fluoropyridin-3-yl)methyl)-[2,4′-bipyrimidin]-2′-amine] | 10 to 100 | 0.01 to 0.099 | *** (151 to 500-fold selectivity for ROCK2) | 
Fc1ccc(CNc2nccc(-c3nccc(C#Cc4cc(F)c5[nH]ncc5c4)n3)n2)nc1 [Ex. 36, 4-((7-Fluoro-1H-indazol-5-yl)ethynyl)-N-((5-fluoropyridin-2-yl)methyl)-[2,4′-bipyrimidin]-2′-amine] | 1 to 9.9 | 0.01 to 0.099 | ** (50 to 150-fold selectivity for ROCK2) | 
CN(C)C(=O)CNc1nccc(-c2nccc(C#Cc3ccc4[nH]nc(F)c4c3)n2)n1 [Ex. 46, 2-((4-((3-Fluoro-1H-indazol-5-yl)ethynyl)-[2,4′-bipyrimidin]-2′-yl)amino)-N,N-dimethylacetamide] | 1 to 9.9 | 0.01 to 0.099 | ** (50 to 150-fold selectivity for ROCK2) | 
O=c1[nH]cccc1CNc1nccc(-c2nccc(C#Cc3ccc4[nH]ncc4c3)n2)n1 [Ex. 21, 3-(((4-((1H-Indazol-5-yl)ethynyl)-[2,4′-bipyrimidin]-2′-yl)amino)methyl)pyridin-2(1H)-one] | 0.1 to 0.99 | 0.01 to 0.099 | ** (50 to 150-fold selectivity for ROCK2) | 
Cc1cnc(F)c(CNc2nccc(-c3nccc(C#Cc4ccc5[nH]ncc5c4)n3)n2)c1 [Ex. 72, 4-((1H-Indazol-5-yl)ethynyl)-N-((2-fluoro-5-methylpyridin-3-yl)methyl)-[2,4′-bipyrimidin]-2′-amine] | 10 to 100 | 10 to 100 | * (<50-fold selectivity for ROCK2) | 
COc1cc(F)ccc1CNc1nccc(-c2nccc(C#Cc3ccc4[nH]ncc4c3)n2)n1 [Ex. 12, 4-((1H-Indazol-5-yl)ethynyl)-N-(4-fluoro-2-methoxybenzyl)-[2,4′-bipyrimidin]-2′-amine] | 1 to 9.9 | 0.01 to 0.099 | *** (151 to 500-fold selectivity for ROCK2) | 
C(#Cc1ccnc(-c2ccnc(NCC3CCCCN3)n2)n1)c1ccc2[nH]ncc2c1 (stereo not drawn) [Ex. 9, 4-((1H-Indazol-5-yl)ethynyl)-N-(piperidin-2-ylmethyl)-[2,4′-bipyrimidin]-2′-amine] | 1 to 9.9 | 0.1 to 0.99 | * (<50-fold selectivity for ROCK2) | 
Fc1cc(CNc2nccc(-c3nccc(C#Cc4ccc5[nH]nc(F)c5c4)n3)n2)ccn1 [Ex. 61, 4-((3-Fluoro-1H-indazol-5-yl)ethynyl)-N-((2-fluoropyridin-4-yl)methyl)-[2,4′-bipyrimidin]-2′-amine] | 10 to 100 | 0.01 to 0.099 | *** (151 to 500-fold selectivity for ROCK2) | 
Fc1cccc(F)c1CNc1nccc(-c2nccc(C#Cc3ccc4[nH]ncc4c3)n2)n1 [Ex. 27, 4-((1H-Indazol-5-yl)ethynyl)-N-(2,6-difluorobenzyl)-[2,4′-bipyrimidin]-2′-amine] | 10 to 100 | 0.1 to 0.99 | ** (50 to 150-fold selectivity for ROCK2) | 
COC(=O)[C@H]1CC[C@H](Nc2nccc(-c3nccc(C#Cc4ccc5[nH]ncc5c4)n3)n2)CC1 [Ex. 86, (1r,4r)-Methyl 4-((4-((1H-indazol-5-yl)ethynyl)-[2,4′-bipyrimidin]-2′-yl)amino)cyclohexanecarboxylate] | 0.1 to 0.99 | < 0.01 | *** (151 to 500-fold selectivity for ROCK2) | 
CC1(C)CCC(CNc2nccc(-c3nccc(C#Cc4ccc5[nH]ncc5c4)n3)n2)O1 (stereo not drawn) [Ex. 68, 4-((1H-Indazol-5-yl)ethynyl)-N-((5,5-dimethyltetrahydrofuran-2-yl)methyl)-[2,4′-bipyrimidin]-2′-amine] | 0.1 to 0.99 | < 0.01 | *** (151 to 500-fold selectivity for ROCK2) | 
Fc1ncccc1CNc1nccc(-c2nccc(C#Cc3cc(F)c4[nH]ncc4c3)n2)n1 [Ex. 42, 4-((7-Fluoro-1H-indazol-5-yl)ethynyl)-N-((2-fluoropyridin-3-yl)methyl)-[2,4′-bipyrimidin]-2′-amine] | 1 to 9.9 | 0.01 to 0.099 | ** (50 to 150-fold selectivity for ROCK2) | 
O=S1(=O)CCC(CNc2nccc(-c3nccc(C#Cc4ccc5[nH]ncc5c4)n3)n2)CC1 [Ex. 85, 4-(((4-((1H-Indazol-5-yl)ethynyl)-[2,4′-bipyrimidin]-2′-yl)amino)methyl)tetrahydro-2H-thiopyran 1,1-dioxide] | 1 to 9.9 | < 0.01 | *** (151 to 500-fold selectivity for ROCK2) | 
Fc1ccnc(CNc2nccc(-c3nccc(C#Cc4ccc5[nH]ncc5c4)n3)n2)c1 [Ex. 10, 4-((1H-Indazol-5-yl)ethynyl)-N-((4-fluoropyridin-2-yl)methyl)-[2,4′-bipyrimidin]-2′-amine] | 1 to 9.9 | 0.01 to 0.099 | ** (50 to 150-fold selectivity for ROCK2) | 
COCCNc1nccc(-c2nccc(C#Cc3ccc4[nH]ncc4c3)n2)n1 [Ex. 75, 4-((1H-Indazol-5-yl)ethynyl)-N-(2-methoxyethyl)-[2,4′-bipyrimidin]-2′-amine] | 1 to 9.9 |  | *** (151 to 500-fold selectivity for ROCK2) | < 0.01
FC(F)(F)c1ccc(CNc2nccc(-c3nccc(C#Cc4ccc5[nH]ncc5c4)n3)n2)nc1 [Ex. 48, 4-((1H-Indazol-5-yl)ethynyl)-N-((5-(trifluoromethyl)pyridin-2-yl)methyl)-[2,4′-bipyrimidin]-2′-amine] | 0.1 to 0.99 | < 0.01 | ** (50 to 150-fold selectivity for ROCK2) | 
